The source of these data is USRE41065E1, “Alkynl and azido-substituted 4-anilinoquinazolines” (Pfizer, Inc., priority 1995, dated 2009).

One series relates to another carcinoma which does not express the EGF receptor. The following applies: athymic nude mice; background statement; cited from earlier work.
In the case of `O=CN/C=C/c1cc(O)ccc1O` [erbstatin], the “growth of carcinoma which does not express the EGF receptor” value is “without effect on the growth”.

The subject of the next series is transplanted human mammary carcinoma which expresses epidermal growth factor receptor tyrosine kinase (EGFR). The following applies: athymic nude mice; background statement; cited from earlier work.
Take `O=CN/C=C/c1cc(O)ccc1O` [erbstatin]: the “growth of transplanted human mammary carcinoma expressing EGFR” value is listed as “selectively attenuates the growth”.

Tested on in a further series: not given
Details: not given
On to `C#Cc1cccc(Nc2ncnc3cc(OCCOC)c(OCCSCC(=O)O)cc23)c1.N`, for which the melting point was 98 to 113 °C (dec.).

For the compound `C#Cc1cc(Nc2ncnc3cc(OCCOC)c(OCCOC)cc23)ccc1F.Cl`, the melting point is 170 to 190 °C (dec.).

`C#Cc1ccc(C)c(Nc2ncnc3cc(OCCOC)c(OCCOC)cc23)c1.Cl`: the melting point was 170 to 185 °C (dec.).

Take `C#Cc1cccc(Nc2ncnc3cc(OCCCl)c(OCCCl)cc23)c1.Cl`: the melting point is 230 to 240 °C (dec.).

As for `C#Cc1cccc(Nc2ncnc3cc(OCCOC)c(OCCCl)cc23)c1.Cl`, the melting point is 215 to 225 °C (dec.).

The compound `C#Cc1cccc(Nc2ncnc3cc(OCCOC(C)=O)c(OCCOC(C)=O)cc23)c1` came in with a melting point of 137 to 138 °C.

On to `C#Cc1cccc(Nc2ncnc3cc(OCCO)c(OCCO)cc23)c1.Cl`, for which the melting point was 215 to 218 °C (dec.).

On to `C#Cc1cccc(Nc2ncnc3cc(OCCOC)c(OCCOC(C)=O)cc23)c1`, for which the melting point lay within 84 to 87 °C.

Consider `C#Cc1cccc(Nc2ncnc3cc(OCCCl)c(OCCOC)cc23)c1.Cl`, for which the melting point is 225 to 235 °C (dec.).

`C#Cc1cccc(Nc2ncnc3cc(OCCOC(C)=O)c(OCCOC)cc23)c1` registered a melting point of 134 to 135 °C.

As for `C#Cc1cccc(Nc2ncnc3cc(OCCN4CCN(C)CC4)c(OCCOC)cc23)c1.Cl.Cl`, the melting point was 130 to 142 °C (dec.).

Regarding `C#Cc1cccc(Nc2ncnc3cc(OCCn4ccnc4)c(OCCOC)cc23)c1.Cl.Cl`, the melting point is 220 to 227 °C (dec.).

Consider `C#Cc1cccc(Nc2ncnc3cc(OCCOC)c(OCCn4ccnc4)cc23)c1.Cl.Cl`, for which the melting point was 85 to 100 °C (dec.).

Take `C#Cc1cccc(Nc2ncnc3cc(OCCOC)c(OCCN4CCOCC4)cc23)c1.Cl.Cl`: the melting point was 115 to 130 °C (dec.).

The compound `C#Cc1cccc(Nc2ncnc3ccc(C)cc23)c1.Cl` displayed a melting point of 256 to 257 °C.

Turning to `C#Cc1cccc(Nc2ncnc3cc(OCCSC(C)C(=O)O)c(OCCOC)cc23)c1.N` (stereo not shown), the melting point is 95 to 103 °C (dec.).

Regarding `C#Cc1cccc(Nc2ncnc3cc(OCCOC)c(O)cc23)c1.Cl`, the melting point was 135 to 150 °C (dec.).

For the compound `C#Cc1cccc(Nc2ncnc3cc(OCCn4ccc(=O)cc4)c(OCCOC)cc23)c1.Cl`, the melting point is 240 to 248 °C (dec.).

For `C#Cc1cccc(Nc2ncnc3cc(OCCOC)c(OCCn4ccc(=O)cc4)cc23)c1.Cl`, the melting point was 155 to 168 °C (dec.).

For `C#Cc1cccc(Nc2ncnc3cc(OCCCC)c(OCCCC)cc23)c1.Cl`, the melting point was 247 to 248 °C.
